Data set [1] has as its system MDA-MB-231. Briefly: MTT cytotoxicity. Format: cell-based, human. The following applies: MDA-MB-231, 3 d. As to the method: Cells of the MDA-MB-231 line (Bioresource Collection and Research Center, Taiwan) were cultured in RPMI 1640 medium supplemented with 10% fetal bovine serum under 5% CO2 atmosphere at 37° C. Twenty-four-well cell culture plates were inoculated with 1×10^5 cells/well and kept at 37° C. for 24 h. The culture medium was changed in the presence of various concentrations of different treatments ([…] alone, carboplatin, cisplatin, and CPN) in culture medium (three replicates). The tests were performed for 3 d without changing the medium. After the overlaying cell-culture medium was removed, the cells were incubated with 3-(4,5-dimethylthiazol-2-yl)-2,5-diphenyltetrazolium bromide (MTT, Sigma, Mo. USA) at 37° C. for 1 h. After treatment, the fomazan product from MTT was dissolved in DMSO and quantified using a conventional ELISA reader at 570 nm. For calibration, a blank test was performed in a 24-well plate under the same conditions.

Data set [2] relates to MDA-MB-231 cell line. Put plainly: ROS assay using CM-H2DCFDA. Type of data set: cell-based, human. The following applies: 3 h. As to the method:
MDA-MB-231 cell line was cultured in RPMI 1640 medium (media were supplemented with 10% fetal bovine serum) under 5% CO2 atmosphere at 37° C. The cells were inoculated with 1×10^5 cells per well in a 6-well cell-culture plate and cultivated at 37° C. for 24 h. Then, the culture medium was changed with the presence of various treatments, including […] alone, the CPN, cisplatin, and 0.03% H2O2 in the culture medium. The tests were performed for 3 h without changing the medium. After removal of the supernatant of cell culture medium, the cells were isolated for ROS assay using CM-H2DCFDA from INVITROGENTM.

The nature of data set [3]: Maximal tolerated dose (Table 1). Type of data set: in vivo. Conditions: IV injection. As to the method: The therapeutic efficacy of CPN using subcutaneous breast cancer xenograft in mice was evaluated by intratumoral (IT) injection. The maximal tolerated dose (MTD) of various drugs, such as CPN and cisplatin, was described in Table 1. […] Thus, the programmed death pathway of CPN-treated cells might be similar to that of cisplatin-treated cells. We verified whether the CPN could be injected into blood vessels to exert tumor-inside activation for anticancer chemotherapeutics. Thus, the CPN was extra coated with a cleavable PEG layer to prevent protein adhesions after intravenous (i.v.) injection to form a double-caged PN (DCPN). […] To render the DCPN with a targeting function, an iRGD tumor-penetrating peptide was co-administered with the DCPN into subcutaneous xenograft nude mice of breast cancer by IV administration. The tumor size in each mouse was grown to about 150 mm^3 to facilitate DCPN delivery. Additionally, the DCPN and one of the control groups (G2NH2 coated with a PEG corona) were pre-attached with as NIR dye, cy5.5, for real-time tracking alter administration. […] Consecutive tissue sections front four groups, including the control, cisplatin, G2NH2, and DCPN groups were examined histologically by hematoxylin and eosin (H&E) staining at the end point, and the slides were evaluated by an independent pathologist (FIG. 16). […]

Data set [4] concerns subcutaneous breast cancer xenograft. Briefly: Tumor suppression after IT injection. Format: in vivo, Balb/c nude mice. The following applies: IT injection once a week for 3 weeks, vs PBS and G2NH2. As to the method:
(§1) Seven-week-old female Balb/c nude mice (16-20 g) were kept on a 12-h light/12-h dark cycle at 24±2° C. and 50±10% relative humidity, with free access to water and food. They were subcutaneously injected with […] cells/mouse to establish a breast tumor model. Tumors were measured by a digital Vernier caliper across each tumor's longest (a) and shortest (b) diameter, and tumor volume (V) was calculated by the formula V=0.5a×b^2. When the tumor size reached approximately 60 mm^3 and 150 mm^3, CPN and DCPN were administered by IT and IV injection, respectively. The stud of comparative efficiency in tumor suppression was performed. The mice were treated with CPN via IT injections once a week for a total of 3 weeks. Similarity. DCPN was administered to mice via IV once a week for 4 weeks. The injection volume was 5 μL/g body weight and the tumor size was calculated every 2 to 3 days. After the mice were sacrificed, tumors and blood were collected and placed in EDTA glass tubes.

For data set [5] the test system is unchanged. Put plainly: TUNEL assay of tumor tissue. Format: in vivo, Balb/c nude mice. The following applies: after treatment for 48 hours. An excerpt: Terminal dexoxynucleotidyl […]-mediated dUTP nick end labeling (TUNEL) assay was used for in situ detection of apoptotic cell death. The frozen sections of tumor tissue (4 μm thick) were warmed up to room temperature. The slides were washed 3 times with PBS to remove OCT (one of tumor's embedded medium for frozen tissues). The labeling procedures followed the standard protocol of this kit. These slides were stained with 3,3'-diaminobenzidne (DAB, Thermo, S21024-2), then counterstained with hematoxylin and mounted onto glass coverslisps before monitoring by light microscopy.

Data set [6] has the same test system. Briefly: Active caspase-3 immunohistochemistry of tumor tissue. Type of data set: in vivo, Balb/c nude mice. The method, then:
The frozen sections of tumor tissue (4 μm thick) were warm up to room temperature washed 3 times with PBS (5 min/time), and fixed with freshly prepared 4% paraformaldehyde in PBS for 15 minutes. The fixed sections were immersed in a polyclonal rabbit anti-mouse active caspase-3 antibody (Abeam Inc., ab2302, 5 μg/mL in 10% BSA of PBS, 50 μL/sample) at 4° C. for overnight, followed by washing with PBS (three times, 15 min/time) and incubating with peroxidase-conjugated polyclonal goat anti-rabbit antibodies (Abeam Inc., ab6721-200, 1:500 (v/v) in PBS, 100 μL/sample) at room temperature for 2 hours. These slides were first stained with DAB, subsequently counterstained with hematoxylin, and mounted with glass coverslisps before monitoring by light microscopy.

Data set [7] has as its system subcutaneous xenograft of breast cancer. Put plainly: Tumor suppression after IV injection with iRGD co-administration. Type of data set: in vivo, Balb/c nude mice. Conditions: IV 16.6 μmol/kg at 7-day intervals, 4 weeks, iRGD co-administered, vs PBS and G2NH2. The method, then: as §1
The therapeutic efficacy of CPN using subcutaneous breast cancer xenograft in mice was evaluated by intratumoral (IT) injection. […] Consecutive tissue sections front four groups, including the control, cisplatin, G2NH2, and DCPN groups were examined histologically by hematoxylin and eosin (H&E) staining at the end point, and the slides were evaluated by an independent pathologist (FIG. 16). […]

The IC50 is the point on the concentration scale where inhibition reaches its midpoint. High values mean weaker potency, low ones greater potency.

With `N.N.O=C([O-])C1(C(=O)[O-])CCC1.[Pt+2]` [carboplatin], the IC50 in data set [1] stood at 35 µg/mL.

The compound `N.N.[Cl][Pt][Cl]` [cisplatin] had a 50% inhibitory concentration (IC50) in data set [1] of 7 µg/mL. Further, the ROS production entry in data set [2] is “no significant ROS increase or decrease”. In addition, in data set [3], the “maximal tolerated dose (MTD)” value turned out to be 16.6 µmol/kg. Further, the tumor suppression entry in data set [4] is on record as “notably efficacious in tumor suppression”. In addition, the “TUNEL staining (broken DNA strands)” value in data set [5] is recorded as “TUNEL-positive staining”. The “apoptosis by active caspase-3 immunostaining” value in data set [6] is given as “can indeed cause apoptosis”. Also, in data set [7], the “tumor growth / tumor volume” value is reported as “can indeed cause tumors to shrink”.
